Results published in EPA's ToxValDB 9.5 (doi:10.2903/j.efsa.2005.26r).
Converted amounts (≈) assume the structure as drawn.

Assays:
[1] = test system: Anas platyrhynchos
[2] = test system: Apis mellifera; conditions: acute; duration: 48 hours; oral; unspecified; mortality
[3] = test system: Colinus virginianus
[4] = test system: Daphnia magna; conditions: chronic/long-term; duration: 21 days; reproduction
[5] = test system: Oncorhynchus mykiss; conditions: acute; duration: 96 hours; mortality
[6] = test system: Pimephales promelas; conditions: chronic/long-term; duration: 28 days
[7] = test system: Rattus norvegicus
[8] = test system: Tagia sp.; conditions: acute; duration: 14 days; mortality
[9] = test system: Aphidius rhopalosiphi; test: LR50; higher = less toxic; conditions: acute; duration: 48 hours; mortality

Structure (SMILES): CNC(=O)ON=C(SC)C(=O)N(C)C [Oxamyl]
- LD50 ([1]; acute, oral, unspecified, mortality): 3.16 mg/kg
- NOEC ([1]; reproductive): 50 mg/kg
- LC50 ([1]; short-term, oral, feed, mortality): 340 mg/kg
- LD50 [2]: 0.38 µg/piece
- LC50 ([3]; acute, oral, diet, mortality): 766 mg/kg
- LD50 ([3]; acute, oral, mortality): 9.5 mg/kg
- NOEC ([3]; reproduction developmental): 10 mg/kg-day
- NOEC [4]: 0.0268 mg/L
- LC50 [5]: 3.13 µg/mL (≈ 14.3 µM)
- NOEC [6]: 0.5 mg/L
- NOAEL ([7]; acute, oral, gavage, M/F, clinical signs): 0.1 mg/kg-day
- LD50 ([7]; acute, oral, mortality): 2.5 mg/kg
- NOEC ([7]; reproduction developmental): 1.43 mg/kg-day
- LC50 [8]: 112 mg/kg
- LR50 [9]: 0.03 g/ha
